Test results taken from patent US10597388B2, “Pyridazinone herbicides” (FMC CORPORATION, priority 2014, dated 2020).

How the values were obtained:
Test in all cases: Test D controlled growth environment herbicide test, pre- and postemergence
Type in all cases: in vivo
[1] = test system: foxtail, green (green foxtail, Setaria viridis)
Summary of the method: (§1)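 Species sown in silt loam and sprayed preemergence, or grown in peat-based medium to 2–18 cm (1- to 4-leaf stage) and sprayed postemergence, with compounds in non-phytotoxic solvent plus surfactant. Visual injury scored versus controls after 14–21 d in a controlled environment, 0 (no effect) to 100 (complete control).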

[2] = test system: oat, wild (wild oat, Avena fatua)
Summary of the method: as §1

[3] = test system: pigweed (Amaranthus retroflexus)
Summary of the method: as §1

[4] = test system: mustard, wild (wild mustard, Sinapis arvensis)
Summary of the method: as §1

[5] = test system: lambsquarters (Chenopodium album)
Summary of the method: as §1

[6] = test system: chickweed (common chickweed, Stellaria media)
Summary of the method: as §1

[7] = test system: blackgrass (Alopecurus myosuroides)
Summary of the method: as §1

[8] = test system: barley, winter (winter barley, Hordeum vulgare)
Summary of the method: as §1

[9] = test system: wheat, winter (winter wheat, Triticum aestivum)
Summary of the method: as §1

[10] = test system: field poppy (Papaver rhoeas)
Summary of the method: as §1

[11] = test system: windgrass (Apera spica-venti)
Summary of the method: as §1

[12] = test system: chamomile (scentless chamomile, Matricaria inodora)
Summary of the method: as §1

[13] = test system: bromegrass, downy (downy bromegrass, Bromus tectorum)
Summary of the method: as §1

[14] = test system: wheat, spring (spring wheat, Triticum aestivum)
Summary of the method: as §1

[15] = Postemergence, 31 g ai/ha, scale 0 to 100 (0 no effect, 100 complete control)
[16] = Postemergence, 125 g ai/ha, visual rating on scale 0 (no effect) to 100 (complete control), 14 to 21 d
[17] = Postemergence, 250 g ai/ha, scale 0 to 100 (0 no effect, 100 complete control)
[18] = Preemergence, 62 g ai/ha, scale 0 to 100 (0 no effect, 100 complete control)
[19] = Preemergence, 125 g ai/ha, scale 0 to 100 (0 no effect, 100 complete control)
[20] = Preemergence, 250 g ai/ha, scale 0 to 100, 0 no effect, 100 complete control
[21] = postemergence, 62 g ai/ha, scale 0 to 100, 0 no effect, 100 complete control

Cc1ccc2sc(Br)c(-c3c(O)c(C)nn(C)c3=O)c2c1 [Compound 79]
25: Plant response rating (scale of 0 to 100), Windgrass ([11]; Preemergence, 31 g ai/ha)
15: Plant response rating, Mustard, Wild [4, 18] | Windgrass plant response rating [11, 15]
50: Plant response rating, Mustard, Wild [4, 17] | Plant response rating, Blackgrass [7, 17] | Plant response rating, Windgrass [11, 19] | Plant response rating, Bromegrass, Downy [13, 19]
5: Plant response rating, Mustard, Wild [4, 19] | Plant response rating, Barley, Winter [8, 17] | Bromegrass, Downy plant response rating [13, 15] | Plant response rating, Bromegrass, Downy [13, 21] | Plant response rating, Wheat, Spring [14, 17]
95: Plant response rating, Foxtail, Green [1, 20] | Chickweed plant response rating [6, 15] | Plant response rating, Chickweed [6, 21] | Plant response rating, Field Poppy [10, 16] | Plant response rating, Chamomile [12, 21]
80: Plant response rating, Foxtail, Green [1, 17] | Plant response rating, Oat, Wild [2, 16] | Plant response rating (scale of 0 to 100), Oat, Wild ([2]; Preemergence, 31 g ai/ha) | Plant response rating, Oat, Wild [2, 18] | Plant response rating, Lambsquarters [5, 21] | Plant response rating, Windgrass [11, 20]
70: Plant response rating, Foxtail, Green [1, 21] | Oat, Wild plant response rating [2, 15] | Plant response rating, Oat, Wild [2, 21]
20: Foxtail, Green plant response rating [1, 15] | Mustard, Wild plant response rating [4, 15] | Plant response rating, Mustard, Wild [4, 21] | Plant response rating (scale of 0 to 100), Blackgrass ([7]; Preemergence, 31 g ai/ha) | Plant response rating, Blackgrass [7, 21] | Plant response rating, Windgrass [11, 21] | Plant response rating, Bromegrass, Downy [13, 17]
100: Pigweed plant response rating [3, 15] | Plant response rating, Pigweed [3, 16] | Plant response rating, Pigweed [3, 17] | Plant response rating, Pigweed [3, 18] | Plant response rating, Pigweed [3, 19] | Plant response rating, Pigweed [3, 20] | Plant response rating, Pigweed [3, 21] | Plant response rating, Lambsquarters [5, 17] | Plant response rating (scale of 0 to 100), Lambsquarters ([5]; Preemergence, 31 g ai/ha) | Plant response rating, Lambsquarters [5, 18] | Plant response rating, Lambsquarters [5, 19] | Plant response rating, Lambsquarters [5, 20] | Plant response rating, Chickweed [6, 16] | Plant response rating, Chickweed [6, 17] | Plant response rating (scale of 0 to 100), Chickweed ([6]; Preemergence, 31 g ai/ha) | Plant response rating, Chickweed [6, 18] | Plant response rating, Chickweed [6, 19] | Plant response rating, Chickweed [6, 20] | Plant response rating (scale of 0 to 100), Field Poppy ([10]; Preemergence, 31 g ai/ha) | Plant response rating, Field Poppy [10, 18] | Plant response rating, Field Poppy [10, 19] | Plant response rating, Field Poppy [10, 20] | Plant response rating, Chamomile [12, 16] | Plant response rating, Chamomile [12, 17]
85: Plant response rating, Oat, Wild [2, 17] | Plant response rating, Oat, Wild [2, 19] | Lambsquarters plant response rating [5, 15] | Plant response rating, Field Poppy [10, 21] | Chamomile plant response rating [12, 15]
45: Plant response rating (scale of 0 to 100), Pigweed ([3]; Preemergence, 31 g ai/ha) | Plant response rating, Blackgrass [7, 18]
55: Plant response rating (scale of 0 to 100), Foxtail, Green ([1]; Preemergence, 31 g ai/ha) | Plant response rating, Blackgrass [7, 19]
60: Plant response rating, Foxtail, Green [1, 18] | Plant response rating, Blackgrass [7, 20] | Plant response rating, Bromegrass, Downy [13, 20]
10: Plant response rating, Mustard, Wild [4, 20] | Blackgrass plant response rating [7, 15] | Plant response rating, Barley, Winter [8, 20] | Plant response rating, Bromegrass, Downy [13, 16]
0: Plant response rating (scale of 0 to 100), Mustard, Wild ([4]; Preemergence, 31 g ai/ha) | Barley, Winter plant response rating [8, 15] | Plant response rating, Barley, Winter [8, 16] | Plant response rating (scale of 0 to 100), Barley, Winter ([8]; Preemergence, 31 g ai/ha) | Plant response rating, Barley, Winter [8, 18] | Plant response rating, Barley, Winter [8, 19] | Plant response rating, Barley, Winter [8, 21] | Wheat, Winter plant response rating [9, 15] | Plant response rating, Wheat, Winter [9, 16] | Plant response rating, Wheat, Winter [9, 17] | Plant response rating (scale of 0 to 100), Wheat, Winter ([9]; Preemergence, 31 g ai/ha) | Plant response rating, Wheat, Winter [9, 18] | Plant response rating, Wheat, Winter [9, 19] | Plant response rating, Wheat, Winter [9, 20] | Plant response rating, Wheat, Winter [9, 21] | Wheat, Spring plant response rating [14, 15] | Plant response rating, Wheat, Spring [14, 16] | Plant response rating (scale of 0 to 100), Wheat, Spring ([14]; Preemergence, 31 g ai/ha) | Plant response rating, Wheat, Spring [14, 18] | Plant response rating, Wheat, Spring [14, 19] | Plant response rating, Wheat, Spring [14, 20] | Plant response rating, Wheat, Spring [14, 21]
98: Plant response rating, Field Poppy [10, 17]
35: Plant response rating, Windgrass [11, 16] | Plant response rating (scale of 0 to 100), Bromegrass, Downy ([13]; Preemergence, 31 g ai/ha) | Plant response rating, Bromegrass, Downy [13, 18]
90: Plant response rating, Oat, Wild [2, 20] | Plant response rating, Lambsquarters [5, 16]
65: Plant response rating, Foxtail, Green [1, 19] | Plant response rating, Windgrass [11, 17]
75: Plant response rating, Foxtail, Green [1, 16] | Field Poppy plant response rating [10, 15]
40: Plant response rating, Mustard, Wild [4, 16] | Plant response rating, Blackgrass [7, 16] | Plant response rating, Windgrass [11, 18]
